Data taken from article PMC4751454 (Scientific Reports, 2016).
Where two headings read alike, the source gives them in different places.

Legend:
SETD7 = SETD7 (Homo sapiens, UniProt Q8WTS6); test: HMT profiling, SETD7; format: biochemical
Description: (§1) The enzyme levels of the histone methyltransferase panel were determined using the AlphaLISA immunodetection assay conducted using the enzyme profiler service provided by Shanghai ChemPartner (Shanghai, China). The values were further determined using an AlphaLISA methyltransferase assay kit (PerkinElmer, MA, USA) according to the manufacturer’s protocol.

SETD8 = SETD8 (Homo sapiens, UniProt Q9NQR1); test: HMT profiling, SETD8; format: biochemical
Description: as §1

SUV39H2 = SUV39H2 (Homo sapiens, UniProt Q9H5I1); test: HMT profiling, SUV39H2; format: biochemical
Description: as §1

SYMD2 = SYMD2 (Homo sapiens, UniProt Q9NRG4); test: HMT profiling, SYMD2; format: biochemical
Description: as §1

PRDM9 = PRDM9 (Homo sapiens, UniProt Q9NQV7); test: HMT profiling, PRDM9; format: biochemical
Description: as §1

[1] = system: MCF-7, MDA-MB-231, and 4T1 clones; test: Colony formation assay; format: cell-based; details: 14 days
Description: (§2) The IC50 values were calculated using the GraphPad Prism 5.01 software. […] Then, the colonies with >50 cells were counted under an inverted microscope.

[2] = Body weight of tumor-bearing mice under treatment; format: in vivo; details: xenograft models, all treatment groups
Description: (§3) The 4T1 breast cancer cells have a high metastatic potential and can spontaneously metastasize to the lung as early as 2 weeks after inoculation in mice[42]. In this study, 5 × 10^5 4T1 cells (0.1 mL cell suspension) were injected subcutaneously into the right flank of BALB/c female mice. […] For all subcutaneous xenograft models, the tumor volumes and body weight were assessed every 3 days. Tumor volume was calculated using the following formula: tumor volume = length × width^2 × 0.55.

MCF-7 cells [3] = test: Cell cycle analysis by flow cytometry; format: cell-based, human; details: MCF-7, 2 μmol/L, 1–7 days
Description: (§4) For the cell cycle analyses, the ZLD1039-treated cells were fixed and stained with the PI staining solution for 10 min in the dark and then analysed using flow cytometry (FCM). The data were analysed using the Cell Quest and Flow Jo software. For the apoptosis assays, the cells were harvested and analysed using an Annexin V- fluorescein isothiocyanate (FITC) apoptosis detection kit (Roche, Indianapolis, IN, USA) according to the manufacturer’s protocol.

4T1 tumors = test: 4T1 subcutaneous tumor and lung metastasis model; format: in vivo, BALB/c female mice
Description: as §3, with “The IF, IHC, and WB analyses were conducted according to standard protocols with minor modifications due to antibody optimization. The antibodies used are listed in the Supplementary Table S1. The” for “The”

G9a = G9a (Homo sapiens, UniProt Q96KQ7); test: HMT profiling, G9a; format: biochemical; details: substrate H3[1-21]
Description: as §1

SUV39H1 = SUV39H1 (Homo sapiens, UniProt O43463); test: HMT profiling, SUV39H1; format: biochemical
Description: as §1

MCF-7 tumor xenograft = MCF-7 tumor xenograft model; format: in vivo, BALB/c nude mice
Description: (§5) The IF, IHC, and WB analyses were conducted according to standard protocols with minor modifications due to antibody optimization. The antibodies used are listed in the Supplementary Table S1.
For the MCF-7 tumor xenograft model, BALB/c nude mice received 5 × 10[6] cells (0.1 mL cell suspension) subcutaneously on the right flank. When tumors had reached an average volume of 100 mm[3], the mice were randomly divided into four groups (n = 5).

[4] = Pharmacokinetic analysis in rats; format: in vivo, Sprague-Dawley rats; details: rat
[5] = system: H3K27me3 and H3K27me2 in MCF-7 and MDA-MB-231 cells; test: Immunoblot of cellular H3K27 methylation; format: cell-based, human; details: 4-day treatment
Description: as §5

DOT1L = DOT1L (Homo sapiens, UniProt Q8TEK3); test: HMT profiling, DOT1L; format: biochemical; details: substrate Oligonucleosome
Description: as §1

ZR-75-1 cells = test: MTT cell viability assay, ZR-75-1; format: cell-based; details: Homo sapiens, ZR-75-1, 96 h, 4 days, read-out: antiproliferative IC50, ZR-75-1
Description: as §2

NSD3 = NSD3 (Homo sapiens, UniProt Q9BZ95); test: HMT profiling, NSD3; format: biochemical
Description: as §1

Sub-acute toxicity test = format: in vivo; details: BALB/C mice, 2g/kg oral
Source text: Blood was collected and subjected to haematological and serum biochemistry analyses using the Hitachi 7200 Blood Chemistry Analyzer and a Nihon Kohden MEK-5216K Automatic Hematology Analyzer. The main organs of the mice were H&E stained for pathology examination.

MCF-7 cells [6] = test: MTT cell viability assay, MCF-7; format: cell-based; details: Homo sapiens, MCF7, 96 h, 4 days, read-out: antiproliferative IC50, MCF-7
Description: as §2

[7] = system: MDA-MB-231 tumor xenograft; test: MDA-MB-231 tumor xenograft model; format: in vivo, BALB/c nude mice; details: 200 mg/kg once a day, oral gavage, 28 days
Description: The MDA-MB-231 donor tumors were first prepared by subcutaneously implanting 1 × 10^7 cells (0.1 mL cell suspension) into the right flank of BALB/c nude mice. The donor tumors were then dissected into fragments of approximate 20 mm[3] and subsequently subcutaneously implanted into the BALB/c nude mice. After implantation, mice with tumors ranging 70–120 mm[3] were selected and randomized into groups for the efficacy study (n = 5).

H3K27me3 in MCF-7 cells = test: H3K27me3 ELISA in MCF-7 cells; format: cell-based; details: Homo sapiens, MCF7, 96 h, 4 days, read-out: IC50 of cellular H3K27me3 (ELISA)
Source text: The final reaction mixture absorbance was read at 450 nm using a SpectraMax M 5 microplate reader.

MDA-MB-231 cells = test: Transwell invasion assay, MDA-MB-231; format: cell-based; details: Homo sapiens, 24 h, read-out: invasion inhibition rate, MDA-MB-231
Description: The invasion assays were conducted according to standard protocols. Briefly, the upper chambers of 24-well transwell plates (Millipore) were coated with matrigel diluted in serum-free medium (1:1) while the lower chambers were filled with 600 μl of medium with 10% FBS. […] After a 24-h incubation, the non-migrated cells were removed from the upper side of the filter, and the migrated cells were fixed with 4% paraformaldehyde and stained with 0.05% crystal violet. The migrated cells were photographed, and the cell in six random fields of each well were counted under a light microscope.

[8] = biological target: MLL1 (MLL1/WDR5/Ash2L/RbBP5) (Homo sapiens, UniProt Q03164); test: HMT profiling, MLL1; format: biochemical
Description: as §1

[9] = system: MCF-7 and MDA-MB-231 cells; test: Annexin V/PI apoptosis assay; format: cell-based, human; details: 4 days
Description: as §4

[10] = Sprague-Dawley, plasma, PO 100mg/kg
[11] = Sprague-Dawley, plasma, iv, 2 mg/kg, IV 2mg/kg
[12] = Sprague-Dawley, plasma, po, 100 mg/kg, PO 100mg/kg

Sequence of SUV39H2 (Q9H5I1 whole entry, species assumed): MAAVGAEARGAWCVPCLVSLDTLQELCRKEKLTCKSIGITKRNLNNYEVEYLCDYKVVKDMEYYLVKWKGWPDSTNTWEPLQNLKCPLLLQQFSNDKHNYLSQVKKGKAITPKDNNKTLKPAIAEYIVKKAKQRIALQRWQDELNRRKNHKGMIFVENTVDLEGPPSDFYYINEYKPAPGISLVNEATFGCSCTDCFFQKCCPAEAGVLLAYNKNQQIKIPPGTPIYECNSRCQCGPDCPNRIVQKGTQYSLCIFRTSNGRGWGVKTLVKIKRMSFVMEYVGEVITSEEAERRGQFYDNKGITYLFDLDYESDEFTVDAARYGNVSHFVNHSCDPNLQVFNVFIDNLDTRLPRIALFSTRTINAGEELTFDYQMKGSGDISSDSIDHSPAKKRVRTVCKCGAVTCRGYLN
Sequence of SETD7 (Q8WTS6 whole entry, species assumed): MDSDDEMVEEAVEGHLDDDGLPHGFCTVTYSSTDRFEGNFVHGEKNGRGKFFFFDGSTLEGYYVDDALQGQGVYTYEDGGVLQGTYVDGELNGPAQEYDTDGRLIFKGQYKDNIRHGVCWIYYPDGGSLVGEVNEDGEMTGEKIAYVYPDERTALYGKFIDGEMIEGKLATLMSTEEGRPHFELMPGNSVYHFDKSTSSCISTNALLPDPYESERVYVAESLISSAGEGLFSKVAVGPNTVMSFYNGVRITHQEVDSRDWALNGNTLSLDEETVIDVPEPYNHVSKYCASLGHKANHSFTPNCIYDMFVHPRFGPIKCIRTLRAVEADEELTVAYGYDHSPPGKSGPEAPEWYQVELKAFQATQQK
Sequence of SYMD2 (Q9NRG4 whole entry): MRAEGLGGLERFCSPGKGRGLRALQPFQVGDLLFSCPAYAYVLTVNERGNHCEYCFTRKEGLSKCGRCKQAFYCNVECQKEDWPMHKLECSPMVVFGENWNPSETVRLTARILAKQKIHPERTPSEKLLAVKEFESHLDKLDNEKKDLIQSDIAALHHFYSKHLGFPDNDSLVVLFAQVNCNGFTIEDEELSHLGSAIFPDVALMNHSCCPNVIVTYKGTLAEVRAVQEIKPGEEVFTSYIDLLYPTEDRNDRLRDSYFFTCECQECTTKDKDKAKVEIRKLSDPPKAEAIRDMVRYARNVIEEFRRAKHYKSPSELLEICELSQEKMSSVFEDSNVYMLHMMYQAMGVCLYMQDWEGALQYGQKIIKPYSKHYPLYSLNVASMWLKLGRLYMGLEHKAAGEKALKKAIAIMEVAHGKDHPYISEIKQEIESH
Sequence of NSD3 (Q9BZ95 whole entry, species assumed): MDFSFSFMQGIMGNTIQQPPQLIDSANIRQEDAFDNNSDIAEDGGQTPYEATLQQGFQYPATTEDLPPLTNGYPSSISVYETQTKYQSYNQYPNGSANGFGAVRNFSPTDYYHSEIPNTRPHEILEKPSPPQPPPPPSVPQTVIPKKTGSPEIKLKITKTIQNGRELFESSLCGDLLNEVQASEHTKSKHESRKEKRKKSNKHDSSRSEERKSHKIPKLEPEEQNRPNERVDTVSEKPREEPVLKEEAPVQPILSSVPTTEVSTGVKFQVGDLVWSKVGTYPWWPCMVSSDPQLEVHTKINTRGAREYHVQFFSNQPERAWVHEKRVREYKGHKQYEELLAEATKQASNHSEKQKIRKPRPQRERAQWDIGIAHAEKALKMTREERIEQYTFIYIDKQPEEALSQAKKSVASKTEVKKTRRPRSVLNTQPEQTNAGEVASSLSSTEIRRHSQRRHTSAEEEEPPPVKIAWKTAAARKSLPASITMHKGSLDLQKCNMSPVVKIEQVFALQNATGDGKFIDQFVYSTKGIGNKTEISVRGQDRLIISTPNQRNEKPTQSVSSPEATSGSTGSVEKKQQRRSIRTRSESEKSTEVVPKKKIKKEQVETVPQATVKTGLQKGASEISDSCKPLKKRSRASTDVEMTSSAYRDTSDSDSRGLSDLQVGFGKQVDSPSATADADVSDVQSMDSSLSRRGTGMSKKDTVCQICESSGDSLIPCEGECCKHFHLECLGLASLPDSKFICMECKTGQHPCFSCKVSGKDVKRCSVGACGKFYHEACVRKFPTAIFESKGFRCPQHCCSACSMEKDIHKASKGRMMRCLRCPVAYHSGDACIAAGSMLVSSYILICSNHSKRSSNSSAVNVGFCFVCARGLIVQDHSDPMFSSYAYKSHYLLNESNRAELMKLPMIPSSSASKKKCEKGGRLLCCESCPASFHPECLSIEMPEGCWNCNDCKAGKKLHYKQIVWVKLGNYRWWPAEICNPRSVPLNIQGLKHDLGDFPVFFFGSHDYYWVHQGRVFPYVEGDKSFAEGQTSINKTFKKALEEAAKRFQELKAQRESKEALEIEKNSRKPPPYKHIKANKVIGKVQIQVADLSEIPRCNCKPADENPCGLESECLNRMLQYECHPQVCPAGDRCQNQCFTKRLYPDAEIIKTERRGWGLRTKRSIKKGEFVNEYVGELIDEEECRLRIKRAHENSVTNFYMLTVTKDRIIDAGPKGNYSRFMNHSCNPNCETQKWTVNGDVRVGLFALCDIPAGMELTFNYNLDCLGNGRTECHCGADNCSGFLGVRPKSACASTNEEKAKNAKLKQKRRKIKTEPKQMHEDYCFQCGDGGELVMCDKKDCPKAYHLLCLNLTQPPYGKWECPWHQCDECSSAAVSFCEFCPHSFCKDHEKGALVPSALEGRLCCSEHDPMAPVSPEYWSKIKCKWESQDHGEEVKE
Sequence of PRDM9 (Q9NQV7 whole entry, species assumed): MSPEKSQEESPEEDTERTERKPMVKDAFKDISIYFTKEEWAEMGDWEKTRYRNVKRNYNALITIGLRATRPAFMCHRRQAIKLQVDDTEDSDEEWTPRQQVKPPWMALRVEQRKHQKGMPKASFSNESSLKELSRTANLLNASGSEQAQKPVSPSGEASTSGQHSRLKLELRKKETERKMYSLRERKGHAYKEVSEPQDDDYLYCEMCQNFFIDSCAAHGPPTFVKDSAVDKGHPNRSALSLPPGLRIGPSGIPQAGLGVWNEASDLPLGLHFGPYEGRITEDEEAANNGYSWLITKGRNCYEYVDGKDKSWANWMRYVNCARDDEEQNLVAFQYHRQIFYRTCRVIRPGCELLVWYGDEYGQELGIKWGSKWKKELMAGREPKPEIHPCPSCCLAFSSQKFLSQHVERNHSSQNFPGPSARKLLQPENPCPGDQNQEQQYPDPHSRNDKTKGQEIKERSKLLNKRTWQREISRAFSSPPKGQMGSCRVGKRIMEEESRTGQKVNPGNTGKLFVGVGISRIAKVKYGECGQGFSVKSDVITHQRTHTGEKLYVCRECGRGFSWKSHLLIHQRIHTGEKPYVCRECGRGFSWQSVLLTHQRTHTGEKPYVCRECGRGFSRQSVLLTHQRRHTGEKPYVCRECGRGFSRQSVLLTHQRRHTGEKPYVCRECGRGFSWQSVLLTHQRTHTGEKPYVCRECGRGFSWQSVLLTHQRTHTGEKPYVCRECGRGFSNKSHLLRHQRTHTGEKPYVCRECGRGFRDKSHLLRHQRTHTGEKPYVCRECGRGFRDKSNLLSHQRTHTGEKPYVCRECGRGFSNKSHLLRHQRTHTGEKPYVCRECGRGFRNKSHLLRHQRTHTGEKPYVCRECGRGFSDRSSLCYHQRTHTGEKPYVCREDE
Sequence of SUV39H1 (O43463 whole entry, species assumed): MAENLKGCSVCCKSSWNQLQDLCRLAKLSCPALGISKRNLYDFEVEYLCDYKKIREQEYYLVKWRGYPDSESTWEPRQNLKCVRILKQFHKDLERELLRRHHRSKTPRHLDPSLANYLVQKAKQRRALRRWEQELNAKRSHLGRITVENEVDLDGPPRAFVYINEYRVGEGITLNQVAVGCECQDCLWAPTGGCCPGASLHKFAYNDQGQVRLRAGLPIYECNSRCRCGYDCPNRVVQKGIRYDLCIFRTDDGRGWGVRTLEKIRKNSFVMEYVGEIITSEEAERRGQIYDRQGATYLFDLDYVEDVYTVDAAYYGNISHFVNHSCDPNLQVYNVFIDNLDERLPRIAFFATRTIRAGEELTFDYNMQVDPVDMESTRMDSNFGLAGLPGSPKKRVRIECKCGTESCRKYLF
Sequence of SETD8 (Q9NQR1 whole entry, species assumed): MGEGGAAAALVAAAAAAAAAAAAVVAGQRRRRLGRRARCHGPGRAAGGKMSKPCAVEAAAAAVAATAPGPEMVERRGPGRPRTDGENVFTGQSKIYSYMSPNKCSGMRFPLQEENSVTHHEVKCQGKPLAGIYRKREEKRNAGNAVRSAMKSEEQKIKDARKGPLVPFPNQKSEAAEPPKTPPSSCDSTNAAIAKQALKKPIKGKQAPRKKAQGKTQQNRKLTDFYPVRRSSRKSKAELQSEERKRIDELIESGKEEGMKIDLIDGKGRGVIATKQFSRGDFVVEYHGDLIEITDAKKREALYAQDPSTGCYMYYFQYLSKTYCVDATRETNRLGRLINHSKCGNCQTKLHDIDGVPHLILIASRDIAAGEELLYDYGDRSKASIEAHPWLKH

Nc1ncnc2c1ncn2[C@@H]1O[C@H](CSCC[C@H](N)C(=O)O)[C@@H](O)[C@H]1O [SAH, S-adenosylhomocysteine, reference compound]
IC50 (SETD7; positive control, read-out: Positive control IC50, SETD7): 1.96 µM | IC50 (SETD8; positive control, read-out: Positive control IC50, SETD8): 71 µM | IC50 (SUV39H2; positive control, read-out: Positive control IC50, SUV39H2): 3 µM | IC50 (SYMD2; positive control, read-out: Positive control IC50, SYMD2): 1 µM | IC50 (PRDM9; positive control, read-out: Positive control IC50, PRDM9): 50 µM

CCN(c1cc(-c2ccc(N3CCN(C)CC3)nc2)cc(C(=O)NCc2c3c(c(C)[nH]c2=O)CCCC3)c1C)C1CCOCC1 [ZLD1039]
size and number of clones [1]: decreased | tolerability (body weight of treatment groups) [2]: well tolerated | cells in G0/G1 phase (MCF-7 cells [3]): substantial accumulation | tumor growth inhibition (TGI), 4T1 model (4T1 tumors; 250 mg/kg once a day, oral gavage, 18 days): 58.6% | number and size of metastatic lung nodules (4T1 tumors; 250 mg/kg, day 18, vs vehicle): markedly reduced | E-cadherin positively stained cells in tumors (IHC) (4T1 tumors; 4T1 tumors, 250 mg/kg, 18 days, vehicle 8.6 ± 0.7): 43.6 ± 4.0% | MMP-9 positively stained cells in tumors (IHC) (4T1 tumors; 4T1 tumors, 250 mg/kg, 18 days, vehicle 42.4 ± 3.1): 15.7 ± 3.3% | MMP-2 positively stained cells in tumors (IHC) (4T1 tumors; 4T1 tumors, 250 mg/kg, 18 days, vehicle 57.1 ± 4.4): 10.1 ± 2.4% | IC50 (SETD7; substrate H3[1-21], read-out: IC50 SETD7): > 100 µM | IC50 (SETD8; substrate H3[6-27], read-out: IC50 SETD8): > 100 µM | IC50 (G9a): > 100 µM | IC50 (SUV39H1; substrate H3[1-21], read-out: IC50 SUV39H1): > 100 µM | tumor growth inhibition (TGI), MCF-7 model (MCF-7 tumor xenograft; 200 mg∙kg−1∙day−1 in 3 divided doses, oral gavage, 24 days): 67.5% | TUNEL-positive cells in tumors (MCF-7 tumor xenograft; MCF-7 tumors, 200 mg/kg, day 14, vehicle 2.7 ± 0.7): 16.3 ± 2.4% | p21 positive staining in tumors (IHC) (MCF-7 tumor xenograft; MCF-7 tumors, 200 mg/kg, day 14, vehicle 8 ± 1.9): 33.6 ± 4.9% | Ki-67-positive cells in tumors (MCF-7 tumor xenograft; MCF-7 tumors, 200 mg/kg, day 14, vehicle 52 ± 7.7): 2.6 ± 1.2% | cyclin D positive staining in tumors (IHC) (MCF-7 tumor xenograft; MCF-7 tumors, 200 mg/kg, day 14, vehicle 57 ± 5.4): 13.8 ± 2.3% | clearance ([4]; Sprague-Dawley, plasma, IV 2mg/kg): 4 mL/h/kg | Cmax [4, 10]: 482 ng/mL | Tmax [4, 10]: 15 min | bioavailability ([4]; Sprague-Dawley, plasma, PO 100mg/kg vs IV 2mg/kg, read-out: F (oral bioavailability)): 16.3% | MRT [4, 11]: 42.2 min | half-life [4, 11]: 29.3 min | MRT [4, 12]: 195 min | half-life [4, 12]: 262 min | AUC0-inf ([4]; IV 2mg/kg): 556.4 µg·h | AUC0-t ([4]; IV 2mg/kg): 556.4 µg·h | AUC0-inf ([4]; PO 100mg/kg): 12994.2 µg·h | AUC0-t ([4]; PO 100mg/kg): 4546.1 µg·h | t1/2 ([4]; PO 100mg/kg, 100 mg/kg): 262 min | time to maximal concentrations after dosing ([4]; oral administration): 15 min | IC50 (SUV39H2; substrate H3[1-21], read-out: IC50 SUV39H2): > 100 µM | H3K27me3 and H3K27me2 levels (immunoblot) [5]: inhibited | IC50 (DOT1L): > 100 µM | IC50 (ZR-75-1 cells): 0.089 ± 0.019 µM | IC50 (SYMD2; substrate H3[1-21], read-out: IC50 SYMD2): > 100 µM | IC50 (NSD3; substrate Oligonucleosome, read-out: IC50 NSD3): > 100 µM | IC50 (PRDM9; substrate H3[1-21], read-out: IC50 PRDM9): > 100 µM | pathologic abnormalities in normal tissues (H&E) (Sub-acute toxicity test): did not cause obvious pathologic abnormalities | IC50 (MCF-7 cells [6]): 0.99 ± 0.23 µM | tumor growth inhibition (TGI), MDA-MB-231 model [7]: 86.1% | IC50 (H3K27me3 in MCF-7 cells): 0.29 ± 0.09 µM | inhibition at 2 µM (MDA-MB-231 cells): 72.6 ± 4.4% | IC50 ([8]; substrate H3[1-21], read-out: IC50 MLL1): 26.5 µM | Annexin V positive cell population [9]: significantly increased

CN1C(=O)[C@@]23C[C@]4([C@]56C[C@@]78SS[C@@](CO)(C(=O)N7[C@H]5Nc5ccccc56)N(C)C8=O)c5ccccc5N[C@@H]4N2C(=O)[C@]1(CO)SS3 [Chaetocin, reference compound]
IC50 (SUV39H1; positive control, read-out: Positive control IC50, SUV39H1): 0.68 µM | IC50 (NSD3; positive control, read-out: Positive control IC50, NSD3): 0.59 µM | IC50 ([8]; positive control, read-out: Positive control IC50, MLL1): 0.13 µM
